# Experiments:
# Assay type in all cases: functional, Salmonella enterica subsp. enterica serovar Typhi
# [1] = system: Salmonella enterica subsp. enterica; test: Antimicrobial activity against multidrug-resistant Salmonella enterica Serovar Typhi isolate AG168 harboring DNA gyrase A S83F mutation by disk diffusion method
# [2] = system: Salmonella enterica subsp. enterica; test: Antimicrobial activity against multidrug-resistant Salmonella enterica Serovar Typhi isolate BL 21095 harboring DNA gyrase A S83F mutation by disk diffusion method in presence of plasmid mediated quinolone-resistant gene qnrA and qnrS
# [3] = system: Salmonella enterica subsp. enterica; test: Antimicrobial activity against Salmonella enterica Serovar Typhi isolate D43 harboring DNA gyrase A S83Y mutation by disk diffusion method in presence of plasmid mediated quinolone-resistant gene qnrA and qnrS
# [4] = system: Salmonella enterica subsp. enterica; test: Antimicrobial activity against multidrug-resistant Salmonella enterica Serovar Typhi isolate nar 102 harboring DNA gyrase A S83F mutation by disk diffusion method in presence of plasmid mediated quinolone-resistant gene qnrA and qnrS
# [5] = system: Salmonella enterica subsp. enterica; test: Antimicrobial activity against multidrug-resistant Salmonella enterica Serovar Typhi isolate CT29 harboring DNA gyrase A S83F mutation by disk diffusion method in presence of plasmid mediated quinolone-resistant gene qnrA and qnrS
# [6] = system: Salmonella enterica subsp. enterica; test: Antimicrobial activity against multidrug-resistant Salmonella enterica Serovar Typhi isolate DT9 harboring DNA gyrase A S83F mutation by disk diffusion method
# [7] = system: Salmonella enterica subsp. enterica; test: Antimicrobial activity against multidrug-resistant Salmonella enterica Serovar Typhi isolate HTD 798 harboring DNA gyrase A S83F mutation by disk diffusion method
# [8] = system: Salmonella enterica subsp. enterica; test: Antimicrobial activity against Salmonella enterica Serovar Typhi isolate CT145 harboring DNA gyrase A S83F mutation by disk diffusion method in presence of plasmid mediated quinolone-resistant gene qnrA and qnrS
# [9] = system: Salmonella enterica subsp. enterica; test: Antimicrobial activity against multidrug-resistant Salmonella enterica Serovar Typhi isolate AG7 harboring DNA gyrase A S83F mutation by disk diffusion method
# [10] = system: Salmonella enterica subsp. enterica; test: Antimicrobial activity against multidrug-resistant Salmonella enterica Serovar Typhi isolate AG17 harboring DNA gyrase A S83F mutation by disk diffusion method
# [11] = system: Salmonella enterica subsp. enterica; test: Antimicrobial activity against multidrug-resistant Salmonella enterica Serovar Typhi isolate DT18 harboring DNA gyrase A S83F and D87G mutation by disk diffusion method
# [12] = system: Salmonella enterica subsp. enterica; test: Antimicrobial activity against multidrug-resistant Salmonella enterica Serovar Typhi isolate DT3 harboring DNA gyrase A S83F mutation by disk diffusion method in presence of plasmid mediated quinolone-resistant gene qnrA and qnrS
# [13] = system: Salmonella enterica subsp. enterica; test: Antimicrobial activity against multidrug-resistant Salmonella enterica Serovar Typhi isolate nar 46 harboring DNA gyrase A D87G mutation by disk diffusion method
# [14] = system: Salmonella enterica subsp. enterica; test: Antimicrobial activity against Salmonella enterica Serovar Typhi isolate C152 harboring DNA gyrase A S83Y mutation by disk diffusion method in presence of plasmid mediated quinolone-resistant gene qnrA and qnrS
# [15] = system: Salmonella enterica subsp. enterica; test: Antimicrobial activity against multidrug-resistant Salmonella enterica Serovar Typhi isolate AG6 harboring DNA gyrase A S83F mutation by disk diffusion method
# [16] = system: Salmonella enterica subsp. enterica; test: Antimicrobial activity against multidrug-resistant Salmonella enterica Serovar Typhi isolate nar 50 harboring DNA gyrase A S83F mutation by disk diffusion method
# [17] = system: Salmonella enterica subsp. enterica; test: Antimicrobial activity against multidrug-resistant Salmonella enterica Serovar Typhi isolate DT2 harboring DNA gyrase A S83F mutation by disk diffusion method in presence of plasmid mediated quinolone-resistant gene qnrA and qnrS
# [18] = system: Salmonella enterica subsp. enterica; test: Antimicrobial activity against multidrug-resistant Salmonella enterica Serovar Typhi isolate DT40 harboring DNA gyrase A S83F mutation by disk diffusion method
# [19] = system: Salmonella enterica subsp. enterica; test: Antimicrobial activity against Salmonella enterica Serovar Typhi isolate AG182 harboring DNA gyrase A S83F mutation by disk diffusion method
# [20] = system: Salmonella enterica subsp. enterica; test: Antimicrobial activity against multidrug-resistant Salmonella enterica Serovar Typhi isolate DT49 harboring DNA gyrase A S83F mutation by disk diffusion method
# [21] = system: Salmonella enterica subsp. enterica; test: Antimicrobial activity against multidrug-resistant Salmonella enterica Serovar Typhi isolate AG16 harboring DNA gyrase A S83F mutation by disk diffusion method
# [22] = system: Salmonella enterica subsp. enterica; test: Antimicrobial activity against multidrug-resistant Salmonella enterica Serovar Typhi isolate ipt 32 harboring DNA gyrase A S83F mutation by disk diffusion method
# [23] = system: Salmonella enterica subsp. enterica; test: Antimicrobial activity against multidrug-resistant Salmonella enterica Serovar Typhi isolate nar 45 harboring DNA gyrase A S83F mutation by disk diffusion method
# [24] = system: Salmonella enterica subsp. enterica; test: Antimicrobial activity against multidrug-resistant Salmonella enterica Serovar Typhi isolate A102 harboring DNA gyrase A S83Y mutation by disk diffusion method in presence of plasmid mediated quinolone-resistant gene qnrA and qnrS
# [25] = system: Salmonella enterica subsp. enterica; test: Antimicrobial activity against multidrug-resistant Salmonella enterica Serovar Typhi isolate nar 51 harboring DNA gyrase A S83F mutation by disk diffusion method
# [26] = system: Salmonella enterica subsp. enterica; test: Antimicrobial activity against multidrug-resistant Salmonella enterica Serovar Typhi isolate DT37 harboring DNA gyrase A S83F mutation by disk diffusion method
# [27] = system: Salmonella enterica subsp. enterica; test: Antimicrobial activity against multidrug-resistant Salmonella enterica Serovar Typhi isolate AG15 harboring DNA gyrase A S83F mutation by disk diffusion method
# [28] = system: Salmonella enterica subsp. enterica; test: Antimicrobial activity against multidrug-resistant Salmonella enterica Serovar Typhi isolate DT47 harboring DNA gyrase A S83F mutation by disk diffusion method in presence of plasmid mediated quinolone-resistant gene qnrA and qnrS
# [29] = system: Salmonella enterica subsp. enterica; test: Antimicrobial activity against multidrug-resistant Salmonella enterica Serovar Typhi isolate nar 107 harboring DNA gyrase A S83F mutation by disk diffusion method in presence of plasmid mediated quinolone-resistant gene qnrA and qnrS
# [30] = system: Salmonella enterica subsp. enterica; test: Antimicrobial activity against multidrug-resistant Salmonella enterica Serovar Typhi isolate nar 28 harboring DNA gyrase A S83F mutation by disk diffusion method
# [31] = system: Salmonella enterica subsp. enterica; test: Antimicrobial activity against multidrug-resistant Salmonella enterica Serovar Typhi isolate B111 harboring DNA gyrase A S83Y mutation by disk diffusion method in presence of plasmid mediated quinolone-resistant gene qnrA and qnrS
# [32] = system: Salmonella enterica subsp. enterica; test: Antimicrobial activity against multidrug-resistant Salmonella enterica Serovar Typhi isolate AG152 harboring DNA gyrase A S83F and D87G mutation by disk diffusion method in presence of plasmid mediated quinolone-resistant gene qnrA and qnrS
# [33] = system: Salmonella enterica subsp. enterica; test: Antimicrobial activity against multidrug-resistant Salmonella enterica Serovar Typhi isolate DT60 harboring DNA gyrase A S83F mutation by disk diffusion method
# [34] = system: Salmonella enterica subsp. enterica; test: Antimicrobial activity against Salmonella enterica Serovar Typhi isolate AG258 harboring DNA gyrase A S83F mutation by disk diffusion method in presence of plasmid mediated quinolone-resistant gene qnrA and qnrS
# [35] = system: Salmonella enterica subsp. enterica; test: Antimicrobial activity against Salmonella enterica Serovar Typhi isolate ipt 2 harboring DNA gyrase A D87G mutation by disk diffusion method in presence of plasmid mediated quinolone-resistant gene qnrA and qnrS
# [36] = system: Salmonella enterica subsp. enterica; test: Antimicrobial activity against multidrug-resistant Salmonella enterica Serovar Typhi isolate AG5 harboring DNA gyrase A S83F mutation by disk diffusion method
# [37] = system: Salmonella enterica subsp. enterica; test: Antimicrobial activity against Salmonella enterica Serovar Typhi isolate E86 harboring DNA gyrase A S83F mutation by disk diffusion method in presence of plasmid mediated quinolone-resistant gene qnrA and qnrS
# [38] = system: Salmonella enterica subsp. enterica; test: Antimicrobial activity against Salmonella enterica Serovar Typhi isolate AG259 harboring DNA gyrase A S83F mutation by disk diffusion method in presence of plasmid mediated quinolone-resistant gene qnrA and qnrS
# [39] = system: Salmonella enterica subsp. enterica; test: Antimicrobial activity against multidrug-resistant Salmonella enterica Serovar Typhi isolate nar 104 harboring DNA gyrase A S83F mutation by disk diffusion method in presence of plasmid mediated quinolone-resistant gene qnrA and qnrS
# [40] = system: Salmonella enterica subsp. enterica; test: Antimicrobial activity against Salmonella enterica Serovar Typhi isolate AG3 harboring DNA gyrase A S83F mutation by disk diffusion method
Structure (SMILES),MIC [1] [µg/mL],MIC [2] [µg/mL],MIC [3] [µg/mL],MIC [4] [µg/mL],MIC [5] [µg/mL],MIC [6] [µg/mL],MIC [7] [µg/mL],MIC [8] [µg/mL],MIC [9] [µg/mL],MIC [10] [µg/mL],MIC [11] [µg/mL],MIC [12] [µg/mL],MIC [13] [µg/mL],MIC [14] [µg/mL],MIC [15] [µg/mL],MIC [16] [µg/mL],MIC [17] [µg/mL],MIC [18] [µg/mL],MIC [19] [µg/mL],MIC [20] [µg/mL],other results
O=C(O)c1cn(C2CC2)c2cc(N3CCNCC3)c(F)cc2c1=O [CIPROFLOXACIN],0.38,0.25,0.25,0.125,0.5,0.5,0.38,0.38,0.5,0.5,0.5,0.5,0.06,0.25,0.5,0.5,0.5,0.38,0.38,0.5,MIC [21]: 0.38 µg/mL; MIC [22]: 0.5 µg/mL; MIC [23]: 0.5 µg/mL; MIC [24]: 0.25 µg/mL; MIC [25]: 0.5 µg/mL; MIC [26]: 0.5 µg/mL; MIC [27]: 0.5 µg/mL; MIC [28]: 0.5 µg/mL; MIC [29]: 0.25 µg/mL; MIC [30]: 0.5 µg/mL; MIC [31]: 0.25 µg/mL; MIC [32]: 0.38 µg/mL; MIC [33]: 0.25 µg/mL; MIC [34]: 0.5 µg/mL; MIC [35]: 0.25 µg/mL; MIC [36]: 0.5 µg/mL; MIC [37]: 0.25 µg/mL; MIC [38]: 0.38 µg/mL; MIC [39]: 0.25 µg/mL
COc1c(N2CCNC(C)C2)c(F)cc2c(=O)c(C(=O)O)cn(C3CC3)c12 (centres undefined) [GATIFLOXACIN],0.13,0.19,0.19,0.094,0.094,0.25,0.13,0.094,0.19,0.19,0.25,0.094,0.032,0.19,0.19,0.094,0.125,0.125,0.13,0.125,MIC [21]: 0.13 µg/mL; MIC [22]: 0.125 µg/mL; MIC [23]: 0.125 µg/mL; MIC [24]: 0.19 µg/mL; MIC [25]: 0.125 µg/mL; MIC [26]: 0.125 µg/mL; MIC [27]: 0.13 µg/mL; MIC [28]: 0.125 µg/mL; MIC [29]: 0.125 µg/mL; MIC [30]: 0.19 µg/mL; MIC [31]: 0.19 µg/mL; MIC [32]: 0.25 µg/mL; MIC [33]: 0.125 µg/mL; MIC [34]: 0.19 µg/mL; MIC [35]: 0.125 µg/mL; MIC [36]: 0.25 µg/mL; MIC [37]: 0.19 µg/mL; MIC [38]: 0.13 µg/mL; MIC [39]: 0.125 µg/mL; MIC [40]: 0.25 µg/mL
CCn1cc(C(=O)O)c(=O)c2ccc(C)nc21 [NALIDIXIC ACID],> 256,> 256,> 256,128,256,> 256,> 256,128,> 256,> 256,> 256,> 256,64,> 256,> 256,256,> 256,> 256,> 256,> 256,MIC [21]: > 256 µg/mL; MIC [22]: 256 µg/mL; MIC [23]: 256 µg/mL; MIC [24]: > 256 µg/mL; MIC [25]: 256 µg/mL; MIC [26]: > 256 µg/mL; MIC [27]: > 256 µg/mL; MIC [28]: 128 µg/mL; MIC [29]: 256 µg/mL; MIC [30]: 256 µg/mL; MIC [31]: > 256 µg/mL; MIC [32]: > 256 µg/mL; MIC [33]: > 256 µg/mL; MIC [34]: > 256 µg/mL; MIC [35]: 256 µg/mL; MIC [36]: > 256 µg/mL; MIC [37]: > 256 µg/mL; MIC [38]: > 256 µg/mL; MIC [39]: 256 µg/mL; MIC [40]: > 256 µg/mL
CC1COc2c(N3CCN(C)CC3)c(F)cc3c(=O)c(C(=O)O)cn1c23 (centres undefined) [OFLOXACIN],1,0.5,0.5,1,1,2,1,0.5,1.5,1.5,2,2,0.5,0.5,1,1,2,0.5,1,1,MIC [21]: 1.5 µg/mL; MIC [22]: 1 µg/mL; MIC [23]: 0.5 µg/mL; MIC [24]: 0.5 µg/mL; MIC [25]: 1 µg/mL; MIC [26]: 1 µg/mL; MIC [27]: 1.5 µg/mL; MIC [28]: 1 µg/mL; MIC [29]: 1 µg/mL; MIC [30]: 1 µg/mL; MIC [31]: 0.5 µg/mL; MIC [32]: 3 µg/mL; MIC [33]: 1 µg/mL; MIC [34]: 1.5 µg/mL; MIC [35]: 2 µg/mL; MIC [36]: 1 µg/mL; MIC [37]: 0.5 µg/mL; MIC [38]: 1.5 µg/mL; MIC [39]: 1 µg/mL; MIC [40]: 2 µg/mL
